PMC8900595 (Journal of medicinal chemistry, 2021)

System: H1N1 A/WSN/1933 virus
Format: cell-based, influenza A virus

## CCN(c1ccccc1C)S(=O)(=O)c1cc(Cl)ccc1Cl [compound 1, 2,5-dichloro-N-ethyl-N-(o-tolyl)-benzenesulfonamide]
  concentration required for maximum virus inhibition (three logs) while maintaining enough virus production for passages: 0.5 μM
